Assay results from patent US20060270670A1, “Methods of synthesizing 6-alkylaminoquinoline derivatives” (priority 2005, published 2006).
Read-outs that look alike come from different tables or passages of the source. One block for each compound: values may come before it.

Tests used:
3T3/neu xenografts = assay: Effect on tumor xenografts, 3T3/neu; format: in vivo, Mice
BT474 xenografts = assay: Effect on tumor xenografts, BT474; format: in vivo, Mice; settings: for maximum tumor inhibition: day 21; for effect on BT474 xenografts: 10-40 mg/kg/day
Protocol: In animals bearing BT474 xenografts, treatment of animals with (E)N-{4-[3-chloro-4-(2-pyridinylmethoxy)anilino]-3-cyano-7-ethoxy-6-quinolinyl}-4-(methylamino)-2-butenamide had no effect at 10-40 mg/kg/day, as shown in Table 4.

[1] = tested on: SW620 colon carcinoma cells; assay: Cell proliferation assay (SRB), SW620; format: cell-based; settings: Homo sapiens, SW-620, 48 h, read-out: IC50 cell proliferation SW620
BT474 = assay: Cell proliferation assay (SRB), BT474; format: cell-based; settings: Homo sapiens, BT-474, 144 h, read-out: IC50 cell proliferation BT474
3T3/neu = assay: Cell proliferation assay (SRB), 3T3/neu; format: cell-based, mouse; settings: for IC50: Mus musculus, 48 h, read-out: IC50 cell proliferation 3T3/neu
3T3 = assay: Cell proliferation assay (SRB), 3T3; format: cell-based; settings: Mus musculus, NIH3T3, 48 h, read-out: IC50 cell proliferation 3T3
SK-Br-3 = assay: Cell proliferation assay (SRB), SK-Br-3; format: cell-based; settings: Homo sapiens, read-out: IC50 cell proliferation SK-Br-3
A431 = assay: Cell proliferation assay (SRB), A431; format: cell-based; settings: Homo sapiens, A-431, 48 h, A431, 2 days, mean and SE (n)
HER-4 = target: T1, HER-4 (Homo sapiens, UniProt Q15303); assay: ErbB substrate phosphorylation assay (33PanQinase assay), HER-4; format: biochemical; settings: peptide substrate phosphorylation, [γ33P]-ATP
T1 construct: purchased ProQinase, Freiburg, Germany
Protocol: (§1) Here, the ability of the compound to inhibit phosphorylation of a substrate peptide [poly(Glu-Tyr) or poly(Ala-Glu-Lys-Tyr)] was determined.

HER-2 = target: T2, HER-2 (Homo sapiens, UniProt P04626); assay: ErbB substrate phosphorylation assay (33PanQinase assay), HER-2; format: biochemical; settings: peptide substrate phosphorylation, [γ33P]-ATP
T2 construct: purchased ProQinase, Freiburg, Germany
Protocol: as §1

[2] = target: T3, cytoplasmic kinase domain of HER-2 (Homo sapiens, UniProt P04626); assay: HER-2 autophosphorylation assay; format: biochemical; settings: purified recombinant C-terminal fragment of HER-2 with ATP; phosphotyrosine antibodies; mean and SE (n)
T3 construct: Purified recombinant C-terminal fragment of HER-2 was incubated with ATP

EGFR = target: T4, EGFR (Homo sapiens, UniProt P00533); assay: ErbB substrate phosphorylation assay (33PanQinase assay), EGFR; format: biochemical; settings: peptide substrate phosphorylation, [γ33P]-ATP
T4 construct: purchased ProQinase, Freiburg, Germany
Protocol: as §1

T1 sequence (Q15303 26-1308): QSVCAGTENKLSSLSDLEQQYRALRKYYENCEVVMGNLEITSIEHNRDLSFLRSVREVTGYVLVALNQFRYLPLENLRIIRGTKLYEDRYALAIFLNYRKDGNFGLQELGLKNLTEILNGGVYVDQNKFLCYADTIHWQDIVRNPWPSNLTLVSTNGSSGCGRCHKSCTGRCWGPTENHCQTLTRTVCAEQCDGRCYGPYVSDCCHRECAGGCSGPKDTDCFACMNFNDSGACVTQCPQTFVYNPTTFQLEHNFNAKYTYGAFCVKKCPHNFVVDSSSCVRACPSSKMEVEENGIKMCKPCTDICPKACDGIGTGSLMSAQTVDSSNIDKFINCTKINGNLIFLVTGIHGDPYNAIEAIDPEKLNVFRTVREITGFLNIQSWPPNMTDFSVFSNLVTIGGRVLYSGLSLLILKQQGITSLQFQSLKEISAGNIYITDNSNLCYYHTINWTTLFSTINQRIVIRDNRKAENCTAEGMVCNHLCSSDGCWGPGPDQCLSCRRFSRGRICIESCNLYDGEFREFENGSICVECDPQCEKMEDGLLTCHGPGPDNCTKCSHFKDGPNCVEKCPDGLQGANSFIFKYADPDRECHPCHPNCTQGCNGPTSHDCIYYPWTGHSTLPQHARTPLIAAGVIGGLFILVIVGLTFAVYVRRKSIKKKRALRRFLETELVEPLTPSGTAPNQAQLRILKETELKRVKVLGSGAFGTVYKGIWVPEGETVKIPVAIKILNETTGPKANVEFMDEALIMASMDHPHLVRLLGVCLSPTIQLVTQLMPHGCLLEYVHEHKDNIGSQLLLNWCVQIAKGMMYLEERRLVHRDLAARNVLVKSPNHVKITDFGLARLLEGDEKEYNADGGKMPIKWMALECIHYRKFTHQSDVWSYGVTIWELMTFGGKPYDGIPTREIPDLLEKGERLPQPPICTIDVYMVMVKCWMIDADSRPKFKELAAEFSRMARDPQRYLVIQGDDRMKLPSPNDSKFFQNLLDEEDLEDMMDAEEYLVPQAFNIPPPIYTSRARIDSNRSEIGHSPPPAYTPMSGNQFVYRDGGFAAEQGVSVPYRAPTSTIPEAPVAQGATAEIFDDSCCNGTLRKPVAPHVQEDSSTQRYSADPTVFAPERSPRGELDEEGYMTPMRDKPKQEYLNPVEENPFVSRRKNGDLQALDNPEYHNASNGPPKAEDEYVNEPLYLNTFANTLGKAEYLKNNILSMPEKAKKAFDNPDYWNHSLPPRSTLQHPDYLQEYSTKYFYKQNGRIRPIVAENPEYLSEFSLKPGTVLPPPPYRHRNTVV
T4 sequence (P00533 25-1210): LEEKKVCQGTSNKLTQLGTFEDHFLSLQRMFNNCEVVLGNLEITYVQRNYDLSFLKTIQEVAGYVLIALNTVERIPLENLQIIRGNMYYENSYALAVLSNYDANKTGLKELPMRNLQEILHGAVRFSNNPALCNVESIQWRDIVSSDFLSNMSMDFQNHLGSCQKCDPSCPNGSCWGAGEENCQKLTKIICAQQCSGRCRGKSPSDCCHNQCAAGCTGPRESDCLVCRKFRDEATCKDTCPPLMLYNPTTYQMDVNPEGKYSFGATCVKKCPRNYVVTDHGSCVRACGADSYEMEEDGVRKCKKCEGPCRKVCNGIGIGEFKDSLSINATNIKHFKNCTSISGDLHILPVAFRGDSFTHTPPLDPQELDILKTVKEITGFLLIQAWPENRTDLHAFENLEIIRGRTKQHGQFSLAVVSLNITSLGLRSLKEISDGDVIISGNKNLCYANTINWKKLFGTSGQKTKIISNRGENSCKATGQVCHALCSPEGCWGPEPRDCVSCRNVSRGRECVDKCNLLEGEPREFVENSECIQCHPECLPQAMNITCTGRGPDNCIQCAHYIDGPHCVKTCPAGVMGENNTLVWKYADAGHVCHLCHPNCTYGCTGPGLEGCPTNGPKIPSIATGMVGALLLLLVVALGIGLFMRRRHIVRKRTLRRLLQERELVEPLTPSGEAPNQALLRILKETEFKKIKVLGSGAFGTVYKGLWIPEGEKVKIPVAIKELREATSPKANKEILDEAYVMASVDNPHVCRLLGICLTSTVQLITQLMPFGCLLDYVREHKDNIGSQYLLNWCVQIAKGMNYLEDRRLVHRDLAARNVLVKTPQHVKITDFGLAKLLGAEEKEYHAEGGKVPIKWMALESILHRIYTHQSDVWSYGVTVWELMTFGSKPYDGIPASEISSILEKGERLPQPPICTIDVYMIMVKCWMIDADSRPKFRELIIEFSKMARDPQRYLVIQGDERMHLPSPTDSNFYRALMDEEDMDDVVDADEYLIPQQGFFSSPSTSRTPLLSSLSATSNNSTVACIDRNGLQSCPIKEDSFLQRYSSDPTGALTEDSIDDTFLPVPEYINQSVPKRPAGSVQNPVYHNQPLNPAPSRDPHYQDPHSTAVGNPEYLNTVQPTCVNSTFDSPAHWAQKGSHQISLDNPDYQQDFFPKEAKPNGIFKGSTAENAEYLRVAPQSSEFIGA
T3 sequence (P04626 676-1255 limits assumed): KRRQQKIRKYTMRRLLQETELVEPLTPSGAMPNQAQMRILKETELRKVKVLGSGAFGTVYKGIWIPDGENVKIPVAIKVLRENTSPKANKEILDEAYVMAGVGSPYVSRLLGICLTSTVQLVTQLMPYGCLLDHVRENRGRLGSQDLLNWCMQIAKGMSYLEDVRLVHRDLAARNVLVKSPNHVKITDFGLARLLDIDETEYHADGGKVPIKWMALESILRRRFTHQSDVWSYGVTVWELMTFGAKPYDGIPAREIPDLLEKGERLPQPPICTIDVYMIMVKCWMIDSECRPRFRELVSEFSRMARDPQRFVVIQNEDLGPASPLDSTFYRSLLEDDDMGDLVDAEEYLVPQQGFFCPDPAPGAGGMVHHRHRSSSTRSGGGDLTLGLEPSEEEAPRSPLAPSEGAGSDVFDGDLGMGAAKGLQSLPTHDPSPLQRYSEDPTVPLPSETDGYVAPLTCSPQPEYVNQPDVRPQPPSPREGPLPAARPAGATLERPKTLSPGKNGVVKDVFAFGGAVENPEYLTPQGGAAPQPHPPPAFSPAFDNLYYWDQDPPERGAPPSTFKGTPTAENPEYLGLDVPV
T2 sequence (P04626 23-1255): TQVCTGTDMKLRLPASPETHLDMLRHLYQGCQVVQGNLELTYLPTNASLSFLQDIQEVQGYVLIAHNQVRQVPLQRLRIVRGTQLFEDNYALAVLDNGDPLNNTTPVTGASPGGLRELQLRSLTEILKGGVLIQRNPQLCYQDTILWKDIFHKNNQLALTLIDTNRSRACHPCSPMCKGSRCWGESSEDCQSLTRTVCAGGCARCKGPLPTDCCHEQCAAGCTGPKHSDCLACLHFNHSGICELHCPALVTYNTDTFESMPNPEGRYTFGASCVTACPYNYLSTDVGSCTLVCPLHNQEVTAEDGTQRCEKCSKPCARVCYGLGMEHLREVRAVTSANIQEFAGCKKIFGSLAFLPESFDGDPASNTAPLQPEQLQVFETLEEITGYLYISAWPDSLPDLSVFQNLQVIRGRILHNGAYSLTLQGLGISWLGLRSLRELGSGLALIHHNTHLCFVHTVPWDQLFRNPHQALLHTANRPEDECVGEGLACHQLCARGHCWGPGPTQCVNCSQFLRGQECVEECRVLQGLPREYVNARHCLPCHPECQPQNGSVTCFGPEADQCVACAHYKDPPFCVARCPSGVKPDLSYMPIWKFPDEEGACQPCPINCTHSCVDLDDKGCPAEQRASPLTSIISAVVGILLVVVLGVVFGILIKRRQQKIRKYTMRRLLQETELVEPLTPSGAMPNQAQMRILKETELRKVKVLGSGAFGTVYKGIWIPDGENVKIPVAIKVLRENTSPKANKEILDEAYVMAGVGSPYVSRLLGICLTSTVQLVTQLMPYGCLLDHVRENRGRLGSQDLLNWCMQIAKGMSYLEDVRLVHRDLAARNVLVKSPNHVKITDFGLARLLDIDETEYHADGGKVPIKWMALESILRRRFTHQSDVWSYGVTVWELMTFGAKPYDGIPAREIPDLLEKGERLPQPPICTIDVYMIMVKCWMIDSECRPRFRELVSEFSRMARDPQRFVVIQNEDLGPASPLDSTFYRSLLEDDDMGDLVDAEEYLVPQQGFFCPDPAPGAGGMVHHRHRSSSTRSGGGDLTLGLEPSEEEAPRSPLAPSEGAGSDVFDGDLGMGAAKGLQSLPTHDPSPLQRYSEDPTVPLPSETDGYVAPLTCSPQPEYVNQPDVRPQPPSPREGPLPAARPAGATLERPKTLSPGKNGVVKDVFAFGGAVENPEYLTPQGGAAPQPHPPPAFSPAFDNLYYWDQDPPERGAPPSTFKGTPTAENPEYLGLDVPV

Structure (SMILES): CCOc1cc2ncc(C#N)c(Nc3ccc(OCc4ccccn4)c(Cl)c3)c2cc1NC(=O)/C=C/CN(C)C [Dimethylamino, (E)N-{4-[3-Chloro-4-(2-pyridinylmethoxy)anilino]-3-cyano-7-ethoxy-6-quinolinyl}-4-(dimethylamino)-2-butenamide, reference compound]
- tumor growth inhibition (3T3/neu xenografts; first test, 40 mg/kg/day, day 18 (data not shown)): 74%
- tumor growth inhibition (3T3/neu xenografts; second independent test, between 40 and 80 mg/kg/day, day 14): 93-100%
- maximum tumor inhibition (BT474 xenografts; 10 mg/kg/day): 64%
- maximum tumor inhibition (BT474 xenografts; 40 mg/kg/day): 97%
- effect on BT474 xenografts (BT474 xenografts): good antitumor activity
- IC50 [1]: 1220 ± 246 nM
- IC50 (BT474): 2 ± 0.2 nM
- IC50 (3T3/neu): 5 ± 0.2 nM
- IC50 (3T3): 2190 ± 700 nM
- IC50 (SK-Br-3; SK-BR-3, 48 h): 36 ± 20 nM

- melting point: 106.5 to 108 °C
Structure (SMILES): CCOc1cc2ncc(C#N)c(Nc3ccc(F)c(Cl)c3)c2cc1NC(=O)/C=C/CNCC(=O)OC(C)(C)C [Example 2, (E)N-{4-[3-chloro-4-fluoroanilino]-3-cyano-7-ethoxy-6-quinolinyl}-4-[N-(t-butyloxycarbonyl)methylamino]-2-butenamide]

- IC50 (A431): 67 nM
- IC50 (HER-4): 13 nM
- IC50 ([1]; SW620, 2 days, SRB, mean and SE (n)): 1600 nM
- IC50 (HER-2): 21 nM
- IC50 (BT474; BT474, 6 days, SRB, mean and SE (n)): 3 nM
- IC50 [2]: 3.4 nM
- IC50 (EGFR): 7 nM
- IC50 (SK-Br-3; 48 h, SK-Br-3, 2 days, SRB, mean and SE (n)): 34 nM
Structure (SMILES): CCOc1cc2ncc(C#N)c(Nc3ccc(OCc4ccccn4)c(Cl)c3)c2cc1NC(=O)/C=C/CNC [Example 6, (E)N-{4-[3-Chloro-4-(2-pyridinylmethoxy)anilino]-3-cyano-7-ethoxy-6-quinolinyl}-4-(methylamino)-2-butenamide]
- effect on tumor growth (3T3/neu xenografts; first test, daily oral, between 5 and 40 mg/kg/day): no effect on tumor growth
- effect on tumor growth (3T3/neu xenografts; second independent test, 100 mg/kg/day): no effect on tumor growth
- effect on BT474 xenografts (BT474 xenografts): no effect
- fold less potent than the dimethylamino compound (3T3/neu; 3T3/neu cells): 8 fold
- IC50 (3T3/neu; 3T3/neu, 2 days, SRB, mean and SE (n)): 40 nM
- IC50 (3T3; 3T3 untransfected cells, 2 days, SRB, mean and SE (n)): 5460 nM
